Test results from patent US7858796B2, “Chemical compounds” (Glaxo Group Limited, priority 2004, dated 2010).

test system: human monocyte stimulated cytokine production (TNF-α); assay: Monocyte Assay (LPS-stimulated TNF-α production); format: cell-based; settings: human CD14+ monocytes, 200 ng/mL LPS, 24 hrs, TNF-α by ELISA
Protocol: Effect of IKK-β inhibition on human monocyte stimulated cytokine production was assessed as follows: Monocytes were isolated from heparinized whole blood by Ficoll gradient, followed by purification of CD14+ cells using MACS magnetic cell separation beads. Isolated monocytes were then adhered to 96-well culture plates at 1×10^6 cells/mL in RPMI 1640 10% FBS (JRH Biosciences, Lenexa Kans.) for 2 h. to further enrich the monocyte population. The media was then removed, cells washed once with RPMI 1640, and 0.125 mL RPMI 1640 10% FBS was added to the wells. Test compounds are added to the wells 30 minutes prior to stimulation with a final vehicle concentration of 0.1% DMSO. Monocytes were activated by the addition of 200 ng/mL endotoxin (LPS; E. coli serotype 026:B6) (Sigma, St. Louis, Mo.) and incubated for 24 hrs at 37 C. Cell-free supernates were analyzed by ELISA for TNF-α using Pharmingen matched pair Abs. Viability of the cells was determined by10% trypan blue exclusion.

IC50, < 10 µM:
CN1CCN(CCCS(=O)(=O)N2CCC(c3c[nH]c4c(C(N)=O)cc(-c5ccsc5)cc34)CC2)CC1 [Example 72, 3-(1-{[3-(4-methyl-1-piperazinyl)propyl]sulfonyl}-4-piperidinyl)-5-(3-thienyl)-1H-indole-7-carboxamide]
NC(=O)c1cc(-c2cccs2)cc2c(C3CCN(S(=O)(=O)CCCN4CCOCC4)CC3)c[nH]c12 [Example 73, 3-(1-{[3-(4-morpholinyl)propyl]sulfonyl}-4-piperidinyl)-5-(2-thienyl)-1H-indole-7-carboxamide]
NC(=O)c1cc(-c2ccsc2)cc2c(C3CCN(S(=O)(=O)CCCN4CCOCC4)CC3)c[nH]c12 [Example 74, 3-(1-{[3-(4-morpholinyl)propyl]sulfonyl}-4-piperidinyl)-5-(3-thienyl)-1H-indole-7-carboxamide]
NC(=O)c1cc(-c2ccc(F)cc2)cc2c(C3CCN(S(=O)(=O)CCCN4CCCC4)CC3)c[nH]c12 [Example 75, 5-(4-fluorophenyl)-3-(1-{[3-(1-pyrrolidinyl)propyl]sulfonyl}-4-piperidinyl)-1H-indole-7-carboxamide]
CN(C)CCCS(=O)(=O)N1CCC(c2c[nH]c3c(C(N)=O)cc(-c4cccc(CO)c4)cc23)CC1 [Example 76, 3-(1-{[3-(dimethylamino)propyl]sulfonyl}-4-piperidinyl)-5-[3-(hydroxymethyl)phenyl]-1H-indole-7-carboxamide]
NC(=O)c1cc(-c2cccc(CO)c2)cc2c(C3CCN(S(=O)(=O)CCCN4CCCC4)CC3)c[nH]c12 [Example 83, 5-[3-(hydroxymethyl)phenyl]-3-(1-{[3-(1-pyrrolidinyl)propyl]sulfonyl}-4-piperidinyl)-1H-indole-7-carboxamide]
CCNCc1cccc(-c2cc(C(N)=O)c3[nH]cc(C4CCN(S(=O)(=O)CCCN(C)C)CC4)c3c2)c1 [Example 96, 3-(1-{[3-(dimethylamino)propyl]sulfonyl}-4-piperidinyl)-5-{3-[(ethylamino)methyl]phenyl}-1H-indole-7-carboxamide]
CC(C)(C)OC(=O)N1CCC(NCCCS(=O)(=O)N2CCC(c3c[nH]c4c(C(N)=O)cc(-c5ccccc5)cc34)CC2)CC1 [Example 108, 1,1-dimethylethyl 4-{[3-({4-[7-(aminocarbonyl)-5-phenyl-1H-indol-3-yl]-1-piperidinyl}sulfonyl)propyl]amino}-1-piperidinecarboxylate]
NC(=O)c1cc(-c2ccccc2)cc2c(C3CCN(S(=O)(=O)CCCNC4CCNCC4)CC3)c[nH]c12 [Example 109, 5-phenyl-3-(1-{[3-(4-piperidinylamino)propyl]sulfonyl}-4-piperidinyl)-11 indole-7-carboxamide]
COCCCS(=O)(=O)N1CCC(c2c[nH]c3c(C(N)=O)cc(-c4ccccc4)cc23)CC1 [Example 160, 3-(1-{[3-(methyloxy)propyl]sulfonyl}-4-piperidinyl)-5-phenyl-1H-indole-7-carboxamide]
NC(=O)c1cc(-c2ccccc2)cc2c(C3CCN(S(=O)(=O)CCCOCC4CC4)CC3)c[nH]c12 [Example 164, 3-[1-({3-[(cyclopropylmethyl)oxy]propyl}sulfonyl)-4-piperidinyl]-5-phenyl-1H-indole-7-carboxamide]
CC(O)C(C)OCCCS(=O)(=O)N1CCC(c2c[nH]c3c(C(N)=O)cc(-c4ccccc4)cc23)CC1 (stereo not drawn) [Example 165, 3-[1-({3-[(2-hydroxy-1-methylpropyl)oxy]propyl}sulfonyl)-4-piperidinyl]-5-phenyl-1H-indole-7-carboxamide]
NC(=O)c1cc(-c2ccccc2)cc2c(C3CCN(S(=O)(=O)CCCO)CC3)c[nH]c12 [Example 174, 3-{1-[(3-hydroxypropyl)sulfonyl]-4-piperidinyl}-5-phenyl-1H-indole-7-carboxamide]
CCOCCS(=O)(=O)N1CCC(c2c[nH]c3c(C(N)=O)cc(-c4ccccc4)cc23)CC1 [Example 175, 3-(1-{[2-(ethyloxy)ethyl]sulfonyl}-4-piperidinyl)-5-phenyl-1H-indole-7-carboxamide]
CCOCCCS(=O)(=O)N1CCC(c2c[nH]c3c(C(N)=O)cc(-c4ccccc4)cc23)CC1 [Example 176, 3-(1-{[3-(ethyloxy)propyl]sulfonyl}-4-piperidinyl)-5-phenyl-1H-indole-7-carboxamide]
NC(=O)c1cc(-c2ccccc2)cc2c(C3CCN(S(=O)(=O)CCOCCN4CCCCC4)CC3)c[nH]c12 [Example 178, 5-phenyl-3-{1-[(2-{[2-(1-piperidinyl)ethyl]oxy}ethyl)sulfonyl]-4-piperidinyl}-1H-indole-7-carboxamide]
CC(C)NCc1cccc(-c2cc(C(N)=O)c3[nH]cc(C4CCN(S(=O)(=O)CCCN(C)C)CC4)c3c2)c1 [Example 214, 3-(1-{[3-(dimethylamino)propyl]sulfonyl}-4-piperidinyl)-5-(3-{[(1-methylethyl)amino]methyl}phenyl)-1H-indole-7-carboxamide]
CONCCS(=O)(=O)N1CCC(c2c[nH]c3c(C(N)=O)cc(-c4ccccc4)cc23)CC1 [Example 215, 3-[1-({2-[(methyloxy)amino]ethyl}sulfonyl)-4-piperidinyl]-5-phenyl-1H-indole-7-carboxamide]
CONCCCS(=O)(=O)N1CCC(c2c[nH]c3c(C(N)=O)cc(-c4ccccc4)cc23)CC1 [Example 219, 3-[1-({3-[(methyloxy)amino]propyl}sulfonyl)-4-piperidinyl]-5-phenyl-1H-indole-7-carboxamide]
CNCc1cccc(-c2cc(C(N)=O)c3[nH]cc(C4CCN(S(=O)(=O)CCCOC)CC4)c3c2)c1 [Example 223, 5-{3-[(methylamino)methyl]phenyl}-3-(1-{[3-(methyloxy)propyl]sulfonyl}-4-piperidinyl)-1H-indole-7-carboxamide]
COCCCS(=O)(=O)N1CCC(c2c[nH]c3c(C(N)=O)cc(-c4cccs4)cc23)CC1 [Example 262, 3-(1-{[3-(methyloxy)propyl]sulfonyl}-4-piperidinyl)-5-(2-thienyl)-1H-indole-7-carboxamide]
CCOCCCS(=O)(=O)N1CCC(c2c[nH]c3c(C(N)=O)cc(-c4ccsc4)cc23)CC1 [Example 263, 3-(1-{[3-(ethyloxy)propyl]sulfonyl}-4-piperidinyl)-5-(3-thienyl)-1H-indole-7-carboxamide]
CCOCCCS(=O)(=O)N1CCC(c2c[nH]c3c(C(N)=O)cc(-c4cccs4)cc23)CC1 [Example 264, 3-(1-{[3-(ethyloxy)propyl]sulfonyl}-4-piperidinyl)-5-(2-thienyl)-1H-indole-7-carboxamide]
NC(=O)c1cc(-c2cccs2)cc2c(C3CCN(S(=O)(=O)CCCO)CC3)c[nH]c12 [Example 265, 3-{1-[(3-hydroxypropyl)sulfonyl]-4-piperidinyl}-5-(2-thienyl)-1H-indole-7-carboxamide]
